From US8314068B2, “P2X7 inhibition of epithelial cancers and papillomas” (University Hospitals of Cleveland, priority 2009, dated 2012)

What was measured:
P2X7 receptor = conditions: cited from earlier work
[1] = tested on: P2X7−/−Pf and P2X7−/−GSK keratinocytes; assay: Apoptosis in keratinocytes of P2X7-receptor-deficient mice; type: cell-based, mouse; conditions: 100 μM BzATP
Procedure: FIG. 16C: BzATP time-response effect in cultured mouse normal keratinocytes (wild-type, C57B1; filled triangles), or in keratinocytes obtained from C57B1 background P2X7-deficient mice (P2X7^−/−Pfizer; empty circles; or P2X7^−/−GSK; filled circles). Values are means (±SD) of 3 experiments for each condition. Changes in apoptosis were determined using cell-death detection ELISA.
Apoptosis of cultured mouse keratinocytes was quantified in terms of percent solubilized DNA, or by using the commercial cell-death detection ELISA kit (Roche Applied Science, Nutley, N.J.). Wang et al., “P2X7-receptor mediated apoptosis of human cervical epithelial cells” Am J Physiol 2004, 287:C1349-C1358; and Feng et al., “A truncated P2X7 receptor variant (P2X7-j) endogenously expressed in cervical cancer cells antagonizes the full-length P2X7 receptor through hetero-oligomerization” J Biol Chem 2006, 281:17228-17237, respectively.
The experiments utilized primary cultures of epidermal keratinocytes generated from 6-8 weeks old wild-type C57B1 mice (Charles River, Wilmington, Mass.); from P2X7^−/−Pfizer mice constructed by deletion of amino acids 506-532 of the C-terminus (Solle et al., “Altered cytokine production in mice lacking P2X(7) receptors” J Biol Chem 2001, 276:125-32), or from P2X7^−/−GSK mice, which have a lacZ gene inserted at the beginning of exon 1, resulting knockout of the receptor. […]

P2X7 pores = assay: Ethidium bromide influx (P2X7 pore formation) in mouse wild-type keratinocytes; type: cell-based
Procedure: FIG. 17B: Time course of influx of ethidium bromide (Eth-Br).
FIG. 17C: Dose response profile comparison between ΔCa^2+i and Eth-Br influx. Cells were treated with each BzATP concentration for […]. Levels of ΔCa^2+i (empty circles) were determined 2 min after adding BzATP; changes in Eth-Br fluorescence (filled circles) were determined 5 min after adding BzATP. Values=means±SD. Experiments were repeated 3 times. AU=arbitrary units.
Changes in Ca^2+i in cultured cells were determined in terms of changes in intracellular Fluo-4 fluorescence using dynamic confocal laser scanning microscopy. Cultured mouse keratinocytes were loaded with 5 μM Fluo-4/AM, and imaged with a Zeiss LSM 510 inverted real-time confocal microscope. Images were collected at 488 nm/505 nm (exc/emi) at intervals of 10 to 15 seconds after treatment with 100 μM BzATP, added to the perfusate. For ethidium bromide influx experiments, glass-bottomed dishes cultured with mouse keratinocytes were placed in the microscope. Images (collected at 488 nm/505 nm [exc/emi]) were taken before, and at intervals of 30 seconds after adding 5 μM ethidium bromide to the perfusate as described. Average fluorescence intensity was quantified from collated images using MetaVue software (Fryer Company Inc., Huntley, Ill.) by subtracting the basal intensity value.

[2] = tested on: human normal keratinocytes; assay: Apoptosis in cultured human normal keratinocytes; type: cell-based; conditions: BzATP 100 μM with ATP 1 μM or 250 μM
[3] = target: T1, human full-length P2X7 receptor (N-Myc-hP2X7-MDCK cells) (Homo sapiens, UniProt Q99572); assay: Apoptosis and P2X7 expression in N-Myc-hP2X7-MDCK cells; type: cell-based; conditions: BzATP 100 μM, 8 hrs
T1 construct: MDCK cells heterologously expressing the human full-length P2X7 receptor tagged with N-Myc at the N-terminus; expressed in transfected cells; host or cells: MDCK (strain II) cells expressing tetracycline-regulated repressor
T1 sequence (Q99572 1-595): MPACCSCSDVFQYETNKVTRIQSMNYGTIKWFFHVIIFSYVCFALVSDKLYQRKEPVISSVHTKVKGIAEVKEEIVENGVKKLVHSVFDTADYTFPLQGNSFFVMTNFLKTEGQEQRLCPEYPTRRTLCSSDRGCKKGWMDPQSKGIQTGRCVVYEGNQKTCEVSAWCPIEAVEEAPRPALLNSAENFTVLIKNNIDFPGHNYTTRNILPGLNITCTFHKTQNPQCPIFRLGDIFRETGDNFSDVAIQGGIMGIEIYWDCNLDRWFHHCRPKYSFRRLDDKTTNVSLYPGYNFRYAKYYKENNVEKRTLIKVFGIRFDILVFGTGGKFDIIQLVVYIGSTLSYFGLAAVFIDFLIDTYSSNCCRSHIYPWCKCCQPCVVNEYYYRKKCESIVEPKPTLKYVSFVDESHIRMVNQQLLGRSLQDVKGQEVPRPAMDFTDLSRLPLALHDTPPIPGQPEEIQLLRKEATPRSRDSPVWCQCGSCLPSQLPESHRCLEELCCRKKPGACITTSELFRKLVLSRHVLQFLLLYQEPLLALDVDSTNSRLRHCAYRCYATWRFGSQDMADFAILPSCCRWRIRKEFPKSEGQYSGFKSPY

- augmentation of apoptosis [3]: 2.5 fold
SMILES: Nc1ncnc2c1ncn2[C@@H]1O[C@H](COP(=O)(O)OP(=O)(O)OP(=O)(O)O)[C@@H](OC(=O)c2ccc(C(=O)c3ccccc3)cc2)[C@H]1O [BzATP, 3′-O-(4-benzoylbenzoyl)adenosine triphosphate]
- EC50 (P2X7 receptor): 35 µM
- potency at the P2X7 receptor relative to ATP (P2X7 receptor; greater potency than ATP): 5-10 fold
- induction of apoptosis [1]: failed to induce apoptosis
- concentration of pre-maximal response, ethidium bromide influx (P2X7 pores): 100 to 250 µM
- onset of pore formation and augmented calcium influx after adding BzATP (P2X7 pores): 30 to 60 s
- threshold concentration, ethidium bromide influx (P2X7 pores): 50 to 100 nM
- influx of ethidium bromide (P2X7 pores; 100 μM BzATP): acute increase in the influx of ethidium bromide
- combined pro-apoptotic effect of BzATP with ATP [2]: non-additive
